Key:
rats with stroke [1] = experiment: Successive treatments starting 4 h after the onset of stroke (Zealonga scores); format: in vivo, SD rats; details: for number of rats scored Score 0 / number of rats scored Score 1 / number of rats scored Score 2: urokinase 20000 IU/kg once per day from 4 h after stroke onset, n=6
Protocol: The efficacy was represented by neural function scores, and a lower score indicates higher efficacy. A 10% chloral hydrate solution was injected intraperitoneally into male SD rats at a dosage of 400 mg/kg body weight for anesthesia. A longitudinal incision was made at the center of the neck, and the right carotid common artery trunk was dissected (about 3 cm in length). Carotid external artery branches were each dissected and ligated at the hyoid level, and the carotid internal artery was dissected at the swollen part of the neck. The open incision in the carotid internal artery and the proximal end of the common carotid artery were occluded respectively with noninvasive arterial clips, and the distal end of the carotid external artery was ligated. A catheter containing 0.5 mL thrombus suspension in normal saline was inserted in the carotid external artery trunk. At the same time when the clip on the carotid internal artery was released, the 0.5 mL thrombus suspension in normal saline in the catheter slowly flew from the carotid external artery to its proximal end, and then was injected into the arteries in brain through the carotid internal artery. Subsequently, the proximal end of the carotid artery was ligated, the arterial clips on the carotid internal artery and the common carotid artery were released, and blood flow was restored. After the wound was stitched up, 20,000 IU penicillin was intramuscularly injected for prevention from infection. After 4 h, compound Ie in normal saline (at a dosage of 1 μmol/kg, n=1), urokinase in normal saline (at a dosage of 20000 IU/kg, n=6) or tPA in normal saline (at a dosage of 3 mg/kg, n=6) was infused through the tail vein. Infusion of compound Ie in normal saline through rat tail vein was carried out once per day for 6 consecutive days, observed for 7 days. The rats were compared to themselves each day, and evaluated for degree of damage in neural function by the Zealonga method. Alternatively, infusion of urokinase in normal saline through rat tail vein was carried out once per day for two consecutive days, the rats were compared to themselves each day, and evaluated for the degree of damage in neural function by the Zealonga method. Alternatively, infusion of tPA in normal saline through rat tail vein was carried out once per day for two consecutive days, the rats were compared to themselves each day, and evaluated for the degree of damage in neural function by the Zealonga method. A score of 0 indicated no sign of loss in neural function, 1 indicated the front limbs on the undamaged side could not stretch out, 2 indicated walking toward the undamaged side, 3 indicated tail-chasing walking in circles toward the undamaged side, 4 indicated involuntary walking with disturbance of consciousness, and 5 indicated death.

rats with stroke [2] = experiment: Immediate treatment after stroke onset with different dosages of Ie (Zealonga scores); format: in vivo, SD rats
Protocol: A 10% chloral hydrate solution (400 mg/kg) was injected intraperitoneally into male SD rats (250 to 300 g) for anesthesia. An incision of about 2 cm in length was longitudinally made slightly on the right to the center of the neck, and the right carotid common artery, carotid external artery and carotid internal artery were dissected along the margin of the inner side of sternocleidomastoid muscles. The open incision in the carotid internal artery and the proximal end of the common carotid artery were occluded respectively with noninvasive arterial clips. A small incision was made on the carotid external artery, and the distal end of the carotid external artery was ligated. The arterial clip at the proximal end of the carotid external artery was released, and 10 μl blood was drawn before the proximal end of the common carotid artery was again occluded with a noninvasive arterial clip. The 10 μl blood drawn was placed in a 1 mL EP vial and kept at RT for 30 min until coagulation of blood, and then transferred into a −20° C. refrigerator for 1 h to allow solid coagulation. After 1 h, the blood clots were taken out, added into 1 mL saline, and then broken into relatively uniform microthrombus by using a steel spatula. The microthrombus suspension was then transferred into a 1 mL injector until use. At the same time when the clip on the carotid internal artery of the rat was released, the 1 mL thrombus suspension in the injector was slowly injected from the carotid external artery of the rat to its proximal end, and then was injected into the brain of the rat through the carotid internal artery. Subsequently, the proximal end of the carotid external artery was ligated, the arterial clips on the carotid internal artery and the carotid common artery were released, and blood flow was restored. Injection of urokinase in normal saline (positive control group, at a dosage of 20000 IU/kg), tPA in normal saline (positive control group, at a dosage of 3 mg/kg), normal saline (blank control group, at a dosage of 3 mL/kg), or compound Ie in normal saline (at a dosage of 1 μmol/kg, 0.1 μmol/kg or 0.01 μmol/kg) was carried out. 24 h after the rats were awake, the degree of damage in neural function was evaluated by the Zealonga method. A score of 0 indicated no sign of loss in neural function, 1 indicated the front limbs on the undamaged side could not stretch out, 2 indicated walking toward the undamaged side, 3 indicated tail-chasing walking in circles toward the undamaged side, 4 indicated involuntary walking with disturbance of consciousness, and 5 indicated death. As shown in the results, in rats receiving immediate treatment after the onset of stroke with […] compound Ie, the percentage of rats with a neural function score of 0 was 60%, 30%, and 0%, respectively; and the percentage of rats with a neural function score of 1 was 20%, 30%, and 10%, respectively.

## urokinase
Rats with stroke [1]; Day 1
  number of rats scored Score 0: 2 rats
  number of rats scored Score 1: 3 rats
  number of rats scored Score 2: 1 rat rats
Rats with stroke [1]; Day 2
  number of rats scored Score 0: 3 rats
  number of rats scored Score 1: 1 rat^ rats
  number of rats scored Score 2: 1 rat rats
Rats with stroke [1]; out of 6 rats, within 48 h, urokinase 20000 IU/kg each day from 4 h after stroke onset
  rats died: 2
Rats with stroke [1]; urokinase 20000 IU/kg each day from 4 h after stroke onset
  autopsy on the dead rats: hemorrhage in internal organs, particularly severe hemorrhage in lungs
Rats with stroke [2]; 20000 IU/kg urokinase
  percentage of rats with a neural function score of 0: 10%
  percentage of rats with a neural function score of 1: 50%
Rats with stroke [2]; urokinase 20000 IU/kg, n = 10
  number of rats scored Score 0: 1
  number of rats scored Score 1: 5
  number of rats scored Score 2: 0
  number of rats scored Score 3: 3
  number of rats scored Score 4: 1
  number of rats scored Score 5: 0

— patent US10806798B2, “Compound with effects of thrombolysis, free radical scavenging and thrombus-targeting” (Shanghai Lumosa Therapeutics Co., Ltd., priority 2012, dated 2020)
